# Experimental data taken from ChEMBL document CHEMBL1201862, “PubChem BioAssay data set” (2004).
#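 All cell lines were grown in 96-well plates and treated with compound for 48 hours. GI50 is the concentration that inhibits growth by half.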 Active and inactive are the calls of the source. Rule as the data show it: active = GI50 up to about 1.1 µM and inactive = higher.
# Columns and labels:
# Assay in all cases: NCI tumour cell line growth inhibition, 48 h
# [1] = system: HOP-92
# [2] = system: NCI-H460
# [3] = system: HT-29
# [4] = system: NCI-H522
# [5] = system: CAKI-1
# [6] = system: UO-31
# [7] = system: IGROV-1
# [8] = system: SF-539
# [9] = system: UACC-62
# [10] = system: K562
# [11] = system: MDA-N
# [12] = system: Hs-578T
# [13] = system: SN12C
# [14] = system: NCI-H23
# [15] = system: TK-10
# [16] = system: OVCAR-3
# [17] = system: BT-549
# [18] = system: PC-3
# [19] = system: NCI-H226
# [20] = system: SF-295
SMILES,GI50 [1],GI50 [2],GI50 [3],GI50 [4],GI50 [5],GI50 [6],GI50 [7],GI50 [8],GI50 [9],GI50 [10],GI50 [11],GI50 [12],GI50 [13],GI50 [14],GI50 [15],GI50 [16],GI50 [17],GI50 [18],GI50 [19],GI50 [20]
CCOC(=O)c1nc2ccccc2nc1Nc1ccc(Cl)c(Cl)c1,16.8 µM (inactive),11 µM (inactive),> 100 µM (inactive),45.7 µM (inactive),24.5 µM (inactive),40.8 µM (inactive),32.5 µM (inactive),60.5 µM (inactive),25.6 µM (inactive),76.7 µM (inactive),68.1 µM (inactive),34.4 µM (inactive),81.5 µM (inactive),33.7 µM (inactive),31.4 µM (inactive),59.3 µM (inactive),12.8 µM (inactive),,,
COc1cc(C(c2ccc3c(c2)OCO3)C2SCCCS2)cc(OC)c1OC (stereo not given),,1.58 µM (inactive),1.89 µM (inactive),2.11 µM (inactive),2.67 µM (inactive),6.22 µM (inactive),2.49 µM (inactive),,2.75 µM (inactive),1.85 µM (inactive),0.372 µM (active),2.33 µM (inactive),2.51 µM (inactive),3.76 µM (inactive),5.2 µM (inactive),3.14 µM (inactive),8.79 µM (inactive),3.6 µM (inactive),2.7 µM (inactive),1.94 µM (inactive)
CN(Cc1cnc2nc(N)nc(N)c2n1)c1ccc(C(=O)NC(CO)CCCO)cc1 (stereo not given),,> 100 µM (inactive),> 100 µM (inactive),,> 100 µM (inactive),> 100 µM (inactive),> 100 µM (inactive),> 100 µM (inactive),> 100 µM (inactive),> 100 µM (inactive),> 100 µM (inactive),> 100 µM (inactive),> 100 µM (inactive),> 100 µM (inactive),> 100 µM (inactive),> 100 µM (inactive),> 100 µM (inactive),> 100 µM (inactive),> 100 µM (inactive),> 100 µM (inactive)
CCOC(=O)/C=C1\Nc2ccccc2C12CCc1c([nH]c3ccccc13)C2C(=O)OCC (stereo not given),,12 µM (inactive),9.08 µM (inactive),21.5 µM (inactive),11.7 µM (inactive),21.3 µM (inactive),8.59 µM (inactive),71.8 µM (inactive),59.3 µM (inactive),48.4 µM (inactive),7.85 µM (inactive),58.7 µM (inactive),44.3 µM (inactive),43.5 µM (inactive),23.8 µM (inactive),44.2 µM (inactive),52.2 µM (inactive),> 100 µM (inactive),,79.4 µM (inactive)
CCC(=O)NCC1CCCN2CCCCC12 (stereo not given),> 100 µM (inactive),> 100 µM (inactive),> 100 µM (inactive),,> 100 µM (inactive),> 100 µM (inactive),,> 100 µM (inactive),> 100 µM (inactive),> 100 µM (inactive),> 100 µM (inactive),> 100 µM (inactive),> 100 µM (inactive),> 100 µM (inactive),> 100 µM (inactive),,> 100 µM (inactive),> 100 µM (inactive),> 100 µM (inactive),> 100 µM (inactive)
c1ccc2c(-c3ccnc(-c4c[nH]c5ccccc45)n3)c[nH]c2c1,1.7 µM (inactive),2.87 µM (inactive),2.7 µM (inactive),,4.25 µM (inactive),3.98 µM (inactive),< 0.01 µM (active),4.37 µM (inactive),1.95 µM (inactive),4.13 µM (inactive),2.78 µM (inactive),2.81 µM (inactive),2.78 µM (inactive),,8.67 µM (inactive),6.4 µM (inactive),> 100 µM (inactive),2.72 µM (inactive),,2.93 µM (inactive)
